# Laboratory results from patent US20100081719A1 (priority 2006, published 2010).
# Several values for one entry are separate records, joined by “and”; a condition that tells them apart may be missing. Identical values can stand only once. Entries after “also recorded” stand apart in the source; their conditions may differ. Counter-ions that a name gives are not always drawn.
# Tests used:
# [1] = test system: patients who met the 1990 ACR criteria for fibromyalgia syndrome; assay: Multi-center double-blind, randomized, placebo-controlled study of milnacipran for the treatment of fibromyalgia (Example 1); type: in vivo, human; conditions: for Responders for the treatment of the pain of fibromyalgia (% = m/n): observed cases (OC), intent-to-treat
# Method: The primary outcome was a composite responder analysis assessing response rate at weeks 14 and 15, and the secondary analysis assessed response rate at weeks 26 and 27.
# This was a multi-center, randomized, double-blinded, placebo-controlled three-arm study, which enrolled 888 patients who met the 1990 ACR criteria for fibromyalgia syndrome as well as the more detailed admission criteria outlined in the protocol.
# Patients recorded baseline symptoms for the first two weeks after washing off anti-depressants, benzodiazepines, and certain other drugs that could potentially interfere with efficacy measurements.
# All randomized medications (placebo and milnacipran) were administered in a split-dose (BID) fashion. The doses were administered in a dose escalation regimen as outlined below:
# d. FMS Status Assessments: Patient pain 24 hour and 7 day recall VAS, the SF-36, Multiple Ability Self-report Questionnaire (MASQ, cognitive function), the Multidimensional Health Assessment Questionnaire (MDHAQ) and the Multidimensional Fatigue Inventory (MFI). Diary assessments include current pain (morning, random daily, and evening reports); daily recall pain (morning report); medications taken (evening report); overall pain past week (weekly report), overall fatigue in the last week (weekly report), and the extent that pain kept the patient from caring for themselves (weekly report).
# The SF-36 is a multi-purpose, short-form health survey. It yields an 8-scale profile of functional health and well-being scores, psychometrically-based physical and mental health summary measures, and a preference-based health utility index (Ware J E, Snow K K, Kosinski M, Gandek B. SF-36® Health Survey Manual and Interpretation Guide. Boston, Mass.: New England Medical Center, The Health Institute, 1993). […] The SF-36 has proven useful in surveys of general and specific populations, comparing the relative burden of diseases, and in differentiating the health benefits produced by a wide range of different treatments.
# The primary endpoint of this study was a composite responder analysis implementing analysis of three domains of interest, evaluated at […]. The domains measured were:
# For the primary analysis, the pain domain score was determined by a calculation that compared the average of treatment weeks 14 and 15 to the two baseline weeks, and treatment weeks 26 and 27 vs. baseline for the secondary analysis. The last observation was carried forward if neither the week 14 nor week 15 (or week 26/27) patient self-reported pain score is available to compare to the baseline value.
# A responder was defined as a subject who experienced a greater than 30% reduction in pain from baseline and improvement on the PGIC.
# See Table 1 for a summary of the results in the Intent-to-Treat Population and Table 2 for a summary of the Last Observation Carried Forward (LOCF), Baseline Observation Carried Forward (BOCF) and study completer (OC) populations. LOCF is an analysis in which observations are carried forward to the last time point for patients who dropped out. The LOCF analysis treats the carried-forward data as observed data at the last time point. BOCF is an analysis that requires the patient remain active in the trial to be evaluated for response. If a patient withdraws from the trial for any reason they are classed as a non-responder irregardless of their pain and global scores at the time of withdrawal.
# [2] = test system: fibromyalgia patients; conditions: cited from earlier work
# [3] = both milnacipran treatment groups (BID and QD), up to 200 mg/day
structure (smiles),measurement,setting,value
"CCN(CC)C(=O)C1(c2ccccc2)CC1CN (racemic) [milnacipran, Z-2-aminomethyl-1-phenyl-N, N-diethylcyclopropanecarboxamide hydrochloride]","Treatment of fatigue associated with FMS (MFI total score / MFI physical fatigue), comparison with placebo",[1]; 100 mg/day vs placebo,superior to placebo
same,SF-36 Physical Function,"[1]; 100 mg/day, treatment week 3",6.31
same,SF-36 Physical Function,"[1]; 100 mg/day, treatment week 7",6.62
same,SF-36 Physical Function,"[1]; 100 mg/day, treatment week 11",7.70
same,SF-36 Physical Function,"[1]; 100 mg/day, treatment week 15",7.70
same,SF-36 Physical Function,"[1]; 100 mg/day, treatment week 19",7.71
same,SF-36 Physical Function,"[1]; 100 mg/day, treatment week 23",7.07
same,SF-36 Physical Function,"[1]; 100 mg/day, treatment week 27",7.11
same,Responders for the treatment of the pain of fibromyalgia (% = m/n),"[1]; 100 mg/day, treatment weeks 14-15 (3 month), hydrochloride",53.33% and 53.3%
same,Responders for the treatment of the pain of fibromyalgia (% = m/n),"[1]; 100 mg/day, treatment weeks 14-15 (3 month), listed as Milnacipran, hydrochloride",72 (53.33) %
same,Responders for the treatment of the pain of fibromyalgia (% = m/n),"[1]; 100 mg/day, treatment weeks 26-27 (6 month), hydrochloride",49.59% and 49.6%
same,Responders for the treatment of the pain of fibromyalgia (% = m/n),"[1]; 100 mg/day, treatment weeks 26-27 (6 month), listed as Milnacipran, hydrochloride",60 (49.59) %
same,"Individual component responder rate, PGIC (LOCF)","[1]; 100 mg, 3 month",54.0%
same,"Individual component responder rate, Pain (LOCF)","[1]; 100 mg, 3 month",35.7%
same,"Pain composite responder rate, Primary Analysis (LOCF)","[1]; 100 mg, 3 month",33.5%
same,"Pain composite responder rate, Sensitivity Analysis I (BOCF)","[1]; 100 mg, 3 month",32.1%
same,"Pain composite responder rate, Sensitivity Analysis II","[1]; 100 mg, 3 month",32.%
same,"Pain composite responder rate, Sensitivity Analysis III","[1]; 100 mg, 3 month",32.1%
same,"Individual component responder rate, PGIC (LOCF)","[1]; 100 mg, 6 month",49.6%
same,"Individual component responder rate, Pain (LOCF)","[1]; 100 mg, 6 month",35.7%
same,"Pain composite responder rate, Primary Analysis (LOCF)","[1]; 100 mg, 6 month",30.8%
same,"Pain composite responder rate, Sensitivity Analysis I (BOCF)","[1]; 100 mg, 6 month",26.8%
same,"Pain composite responder rate, Sensitivity Analysis II","[1]; 100 mg, 6 month",27.2%
same,"Pain composite responder rate, Sensitivity Analysis III","[1]; 100 mg, 6 month",29.5%
same,MFI (change from baseline) Physical fatigue (range 4 to 20),"[1]; 100 mg, treatment week 3",−0.99
same,MFI (change from baseline) Total score (range 20 to 100),"[1]; 100 mg, treatment week 3",−3.68
same,MFI (change from baseline) Physical fatigue (range 4 to 20),"[1]; 100 mg, treatment week 7",−1.23
same,MFI (change from baseline) Total score (range 20 to 100),"[1]; 100 mg, treatment week 7",−4.32
same,MFI (change from baseline) Physical fatigue (range 4 to 20),"[1]; 100 mg, treatment week 11",−1.46
same,MFI (change from baseline) Total score (range 20 to 100),"[1]; 100 mg, treatment week 11",−5.16
same,MFI (change from baseline) Physical fatigue (range 4 to 20),"[1]; 100 mg, treatment week 15",−1.29
same,MFI (change from baseline) Total score (range 20 to 100),"[1]; 100 mg, treatment week 15",−5.15
same,MFI (change from baseline) Physical fatigue (range 4 to 20),"[1]; 100 mg, treatment week 19",−1.34
same,MFI (change from baseline) Total score (range 20 to 100),"[1]; 100 mg, treatment week 19",−4.97
same,MFI (change from baseline) Physical fatigue (range 4 to 20),"[1]; 100 mg, treatment week 23",−1.23
same,MFI (change from baseline) Total score (range 20 to 100),"[1]; 100 mg, treatment week 23",−4.44
same,MFI (change from baseline) Physical fatigue (range 4 to 20),"[1]; 100 mg, treatment week 27",−1.37
same,MFI (change from baseline) Total score (range 20 to 100),"[1]; 100 mg, treatment week 27",−5.00
same,"Treatment of fatigue associated with FMS (MFI), comparison of doses","[1]; 200 mg/day (high dose) vs 100 mg/day, hydrochloride",superior to milnacipran 100 mg/day; also recorded: significantly more effective treatment
same,"Treatment of fatigue associated with FMS (MFI total score / MFI physical fatigue), comparison with placebo",[1]; 200 mg/day vs placebo,superior to placebo
same,SF-36 Physical Function,"[1]; 200 mg/day, treatment week 3",7.44
same,SF-36 Physical Function,"[1]; 200 mg/day, treatment week 7",8.80
same,SF-36 Physical Function,"[1]; 200 mg/day, treatment week 11",8.46
same,SF-36 Physical Function,"[1]; 200 mg/day, treatment week 15",8.44
same,SF-36 Physical Function,"[1]; 200 mg/day, treatment week 19",8.37
same,SF-36 Physical Function,"[1]; 200 mg/day, treatment week 23",7.85
same,SF-36 Physical Function,"[1]; 200 mg/day, treatment week 27",7.95
same,Responders for the treatment of the pain of fibromyalgia (% = m/n),"[1]; 200 mg/day, treatment weeks 14-15 (3 month), hydrochloride",55.0%
same,Responders for the treatment of the pain of fibromyalgia (% = m/n),"[1]; 200 mg/day, treatment weeks 14-15 (3 month), listed as Milnacipran, hydrochloride",143 (55.00) %
same,Responders for the treatment of the pain of fibromyalgia (% = m/n),"[1]; 200 mg/day, treatment weeks 26-27 (6 month), hydrochloride",51.74% and 51.7%
same,Responders for the treatment of the pain of fibromyalgia (% = m/n),"[1]; 200 mg/day, treatment weeks 26-27 (6 month), listed as Milnacipran, hydrochloride",119 (51.74) %
same,"Individual component responder rate, PGIC (LOCF)","[1]; 200 mg, 3 month",50.6%
same,"Individual component responder rate, Pain (LOCF)","[1]; 200 mg, 3 month",38.3%
same,"Pain composite responder rate, Primary Analysis (LOCF)","[1]; 200 mg, 3 month",34.9%
same,"Pain composite responder rate, Sensitivity Analysis I (BOCF)","[1]; 200 mg, 3 month",32.4%
same,"Pain composite responder rate, Sensitivity Analysis II","[1]; 200 mg, 3 month",32.7%
same,"Pain composite responder rate, Sensitivity Analysis III","[1]; 200 mg, 3 month",32.4%
same,"Individual component responder rate, PGIC (LOCF)","[1]; 200 mg, 6 month",49.9%
same,"Individual component responder rate, Pain (LOCF)","[1]; 200 mg, 6 month",35.4%
same,"Pain composite responder rate, Primary Analysis (LOCF)","[1]; 200 mg, 6 month",32.2%
same,"Pain composite responder rate, Sensitivity Analysis I (BOCF)","[1]; 200 mg, 6 month",27.0%
same,"Pain composite responder rate, Sensitivity Analysis II","[1]; 200 mg, 6 month",28.6%
same,"Pain composite responder rate, Sensitivity Analysis III","[1]; 200 mg, 6 month",29.9%
same,MFI (change from baseline) Physical fatigue (range 4 to 20),"[1]; 200 mg, treatment week 3",−1.20
same,MFI (change from baseline) Total score (range 20 to 100),"[1]; 200 mg, treatment week 3",−4.58
same,MFI (change from baseline) Physical fatigue (range 4 to 20),"[1]; 200 mg, treatment week 7",−1.56
same,MFI (change from baseline) Total score (range 20 to 100),"[1]; 200 mg, treatment week 7",−5.92
same,MFI (change from baseline) Physical fatigue (range 4 to 20),"[1]; 200 mg, treatment week 11",−1.54
same,MFI (change from baseline) Total score (range 20 to 100),"[1]; 200 mg, treatment week 11",−5.67
same,MFI (change from baseline) Physical fatigue (range 4 to 20),"[1]; 200 mg, treatment week 15",−1.50
same,MFI (change from baseline) Total score (range 20 to 100),"[1]; 200 mg, treatment week 15",−5.62
same,MFI (change from baseline) Physical fatigue (range 4 to 20),"[1]; 200 mg, treatment week 19",−1.54
same,MFI (change from baseline) Total score (range 20 to 100),"[1]; 200 mg, treatment week 19",−5.67
same,MFI (change from baseline) Physical fatigue (range 4 to 20),"[1]; 200 mg, treatment week 23",−1.44
same,MFI (change from baseline) Total score (range 20 to 100),"[1]; 200 mg, treatment week 23",−4.94
same,MFI (change from baseline) Physical fatigue (range 4 to 20),"[1]; 200 mg, treatment week 27",−1.49
same,MFI (change from baseline) Total score (range 20 to 100),"[1]; 200 mg, treatment week 27",−5.80
same,Relief from fibromyalgia and its symptoms,[1]; continued administration (daily for at least three months),long-term (at least three months) relief
same,"Long-term treatment of fibromyalgia and some of its symptoms, comparison of doses","[1]; low dose (100 mg/day) vs high dose (200 mg/day), continued administration",almost as effective as
same,Therapy for the symptom of pain in FMS,[2]; 100 mg BID,effective acute (short-term) therapy
same,PGIC: completers who reported an improvement in their overall status,[2]; [3],over 70%
same,PGIC: completers who reported worsening,[2]; [3],10%
same,Deaths or serious adverse events associated with treatment,[2]; milnacipran-treated patients,no deaths or serious adverse events
same,Patients in whom elevation in hepatic enzymes resulted in adverse events,[2]; milnacipran-treated patients,2%
same,"Effect on fatigue, mood, global wellness, and function, BID vs QD dosing",[2]; twice-daily (BID) vs once-daily (QD) dosing,approximately equally effective
same,"Treating pain, BID vs QD dosing",[2]; twice-daily vs QD dosing,more effective in treating pain than QD dosing
